According to US20140121216A1, “INDOLEAMINE DERIVATIVES FOR THE TREATMENT OF CENTRAL NERVOUS SYSTEM DISEASES” (Adamed Sp. z o.o., priority 2011, published 2014):

Key:
[1] = target: T1, D4.4 receptor, human recombinant (CHO cells) (Homo sapiens, UniProt P21917); test: Binding assay, dopaminergic D4.4 receptor ([3H]methylspiperone); details: compound 1×10^−6 M
T1 construct: expressed in transfected cells; host or cells: CHO cells
T1 sequence (P21917 1-419): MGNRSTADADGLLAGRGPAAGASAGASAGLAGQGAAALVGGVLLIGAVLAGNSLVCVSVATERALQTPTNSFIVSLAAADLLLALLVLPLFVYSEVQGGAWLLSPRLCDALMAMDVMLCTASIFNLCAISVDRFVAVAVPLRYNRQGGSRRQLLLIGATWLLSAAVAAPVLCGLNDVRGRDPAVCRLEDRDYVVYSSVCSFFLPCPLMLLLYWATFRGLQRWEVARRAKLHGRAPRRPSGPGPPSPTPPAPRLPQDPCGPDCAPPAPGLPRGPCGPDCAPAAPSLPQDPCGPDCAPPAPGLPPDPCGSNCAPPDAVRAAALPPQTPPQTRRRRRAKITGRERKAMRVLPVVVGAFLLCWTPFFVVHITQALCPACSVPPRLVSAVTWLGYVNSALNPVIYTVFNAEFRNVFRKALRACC
Procedure: (§1) Moreover, ability of the compounds of the invention to block potassium channel hERG was tested.
(§2) The specific ligand binding to the receptors is defined as the difference between the total binding and the non-specific binding determined in the presence of an excess of unlabelled ligand.
(§3) The inhibition constants (Ki) were calculated using the Cheng Prusoff equation (Ki=IC50/(1+(L/KD)), where L=concentration of radioligand in the assay, and KD=affinity of the radioligand for the receptor). A Scatchard plot is used to determine the Kd. The IC50 values (concentration causing a half-maximal inhibition of control specific binding) and Hill coefficients (nH) were determined by non-linear regression analysis of the competition curves generated with mean replicate values using Hill equation curve fitting (Y=D+[(A−D)/(1+(C/C50)^nH)], where Y=specific binding, D=minimum specific binding, A=maximum specific binding, C=compound concentration, C50=IC50, and nH=slope factor). This analysis was performed using a software developed at Cerep (Hill software) and validated by comparison with data generated by the commercial software SigmaPlot® 4.0 for Windows® (©1997 by SPSS Inc.).
Experimental conditions for tests are given in Table 1, the results of tests for so representative compounds are given in Table 2a and 2b (receptors D2 and D3) and in Table 3 (receptors D4).

[2] = target: T2, M3 muscarinic receptors, human recombinant (CHO cells) (Homo sapiens, UniProt P20309); test: Binding assay, M3 muscarinic receptor ([3H]4-DAMP); details: compound 1×10^−6 M
T2 construct: expressed in transfected cells; host or cells: CHO cells
T2 sequence (P20309 whole entry): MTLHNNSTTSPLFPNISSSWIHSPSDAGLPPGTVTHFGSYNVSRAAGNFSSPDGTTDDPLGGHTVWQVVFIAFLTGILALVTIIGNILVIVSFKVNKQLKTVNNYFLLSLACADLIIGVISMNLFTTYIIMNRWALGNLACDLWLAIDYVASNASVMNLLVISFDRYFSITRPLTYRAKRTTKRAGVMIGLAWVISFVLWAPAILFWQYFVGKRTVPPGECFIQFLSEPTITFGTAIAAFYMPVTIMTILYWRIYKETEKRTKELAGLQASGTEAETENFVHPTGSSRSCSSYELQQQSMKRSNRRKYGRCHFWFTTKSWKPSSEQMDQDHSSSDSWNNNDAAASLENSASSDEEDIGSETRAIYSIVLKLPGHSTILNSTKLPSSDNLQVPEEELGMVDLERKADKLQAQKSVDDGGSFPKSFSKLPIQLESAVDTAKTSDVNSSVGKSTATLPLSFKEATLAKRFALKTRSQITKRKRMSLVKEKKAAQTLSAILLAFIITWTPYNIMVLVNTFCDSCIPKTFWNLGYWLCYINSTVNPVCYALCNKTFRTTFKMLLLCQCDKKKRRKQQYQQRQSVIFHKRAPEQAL
Procedure: as §1, §2, §3
Experimental conditions for tests are given in Table 10, and results of tests for representative compounds are given in Table 11.

[3] = target: T3, H1 histaminergic receptors, human recombinant (HEK-293 cells) (Homo sapiens, UniProt P35367); test: Binding assay, H1 histaminergic receptor ([3H]pyrilamine); details: for H1 [%] affinity test result: compound 1×10^−6 M; for Ki: read-out: Inhibition constant Ki H1
T3 construct: expressed in transfected cells; host or cells: HEK-293 cells
T3 sequence (P35367 whole entry): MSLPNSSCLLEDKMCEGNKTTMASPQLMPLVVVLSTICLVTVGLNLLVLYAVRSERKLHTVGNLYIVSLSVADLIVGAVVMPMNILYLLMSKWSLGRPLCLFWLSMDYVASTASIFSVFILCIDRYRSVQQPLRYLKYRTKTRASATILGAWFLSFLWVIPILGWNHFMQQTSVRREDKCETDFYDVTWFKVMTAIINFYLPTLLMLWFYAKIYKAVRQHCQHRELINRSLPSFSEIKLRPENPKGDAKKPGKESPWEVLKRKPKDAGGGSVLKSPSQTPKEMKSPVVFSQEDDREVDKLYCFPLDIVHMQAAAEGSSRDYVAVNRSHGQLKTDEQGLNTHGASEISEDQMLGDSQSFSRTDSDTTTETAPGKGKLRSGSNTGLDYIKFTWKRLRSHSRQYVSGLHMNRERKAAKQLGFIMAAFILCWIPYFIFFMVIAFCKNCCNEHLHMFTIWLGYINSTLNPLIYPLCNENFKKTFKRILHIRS
Procedure: as §1, §2, §3
Experimental conditions for tests are given in Table 14, and results of tests for representative compounds are given in Table 15a and 15b.

[4] = target: T4, D2S (h), human recombinant (HEK-293 cells) (Homo sapiens, UniProt P14416); test: Cellular functional assay D2S (h) antagonism; type: cell-based; details: HEK293; compound 1×10^−6 M; stimulus dopamine 30 nM; read-out: D2-antag [%]
T4 construct: expressed in transfected cells; host or cells: HEK-293 cells
T4 sequence (P14416 1-414 isoform P14416-2): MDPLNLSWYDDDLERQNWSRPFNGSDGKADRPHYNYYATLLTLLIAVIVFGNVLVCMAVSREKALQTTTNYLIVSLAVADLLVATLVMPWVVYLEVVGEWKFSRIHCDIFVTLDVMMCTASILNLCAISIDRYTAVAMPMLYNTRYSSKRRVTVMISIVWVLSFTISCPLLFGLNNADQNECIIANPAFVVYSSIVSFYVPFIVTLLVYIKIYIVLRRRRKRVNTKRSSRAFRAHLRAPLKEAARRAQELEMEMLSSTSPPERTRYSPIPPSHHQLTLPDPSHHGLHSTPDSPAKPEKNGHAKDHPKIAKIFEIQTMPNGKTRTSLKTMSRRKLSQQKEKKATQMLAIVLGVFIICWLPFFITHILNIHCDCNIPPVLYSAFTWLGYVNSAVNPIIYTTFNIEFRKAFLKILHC
Procedure: (§4) The results are expressed as a percent of control specific agonist response ((measured specific response/control specific agonist response)×100) obtained in the presence of tested compound.
(§5) The EC50 values (concentration producing a half-maximal specific response) and IC50 values (concentration causing a half-maximal inhibition of the control specific agonist response) were determined by non-linear regression analysis of the concentration-response curves generated with mean replicate values using Hill equation curve fitting (Y=D+[(A−D)/(1+(C/C50)nH)], where Y=specific response, D=minimum specific response, A=maximum specific response, C=compound concentration, and C50=EC50 or IC50, and nH=slope factor).
(§6) For the antagonists, the apparent dissociation constants (Kb) were calculated using the modified Cheng Prusoff equation (Kb=IC50/(1+(A/EC50A)), where A=concentration of reference agonist in the assay, and EC50A=EC50 value of the reference agonist).

[5] = target: T5, D3 (h), human recombinant (CHO cells) (Homo sapiens, UniProt P35462); test: Cellular functional assay D3 (h) agonism; type: cell-based; details: compound 1×10^−6 M; control 0.3 μM dopamine
T5 construct: expressed in transfected cells; host or cells: CHO cells
T5 sequence (P35462 whole entry): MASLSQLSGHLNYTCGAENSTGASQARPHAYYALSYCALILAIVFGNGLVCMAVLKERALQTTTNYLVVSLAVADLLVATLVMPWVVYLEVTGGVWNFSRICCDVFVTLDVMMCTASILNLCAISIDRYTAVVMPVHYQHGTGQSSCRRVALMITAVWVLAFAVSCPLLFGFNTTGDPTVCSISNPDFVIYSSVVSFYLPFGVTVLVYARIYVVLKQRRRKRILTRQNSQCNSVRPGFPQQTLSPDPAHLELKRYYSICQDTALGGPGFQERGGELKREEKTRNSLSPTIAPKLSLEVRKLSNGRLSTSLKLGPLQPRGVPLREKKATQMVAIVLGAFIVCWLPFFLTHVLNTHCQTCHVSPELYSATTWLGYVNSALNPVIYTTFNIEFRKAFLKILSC
Procedure: as §4, §5, §6

[6] = target: T6, 5-HT1A (h), human recombinant (CHO cells) (Homo sapiens, UniProt P08908); test: Cellular functional assay 5-HT1A (h) antagonism; type: cell-based; details: compound 1×10^−6 M; stimulus 8-OH-DPAT 10 nM
T6 construct: expressed in transfected cells; host or cells: CHO cells
T6 sequence (P08908 1-422): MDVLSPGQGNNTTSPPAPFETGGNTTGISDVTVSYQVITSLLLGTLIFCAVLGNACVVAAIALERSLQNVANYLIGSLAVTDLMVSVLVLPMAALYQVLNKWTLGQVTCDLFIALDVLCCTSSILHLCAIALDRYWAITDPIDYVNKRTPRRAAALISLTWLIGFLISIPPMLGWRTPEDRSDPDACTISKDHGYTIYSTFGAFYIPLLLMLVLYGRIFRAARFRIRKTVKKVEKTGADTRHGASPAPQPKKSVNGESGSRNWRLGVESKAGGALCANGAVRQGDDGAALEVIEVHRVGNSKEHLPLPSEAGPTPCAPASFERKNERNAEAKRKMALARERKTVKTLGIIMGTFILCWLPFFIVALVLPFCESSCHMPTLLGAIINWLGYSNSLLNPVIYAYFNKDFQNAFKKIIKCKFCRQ
Procedure: as §4, §5, §6

[7] = target: T7, 5-HT6 (h), human recombinant (CHO cells) (Homo sapiens, UniProt P50406); test: Cellular functional assay 5-HT6 (h) agonism; type: cell-based; details: compound 1×10^−6 M, control 10 μM serotonin, read-out: 5-HT6-ag [%]
T7 construct: expressed in transfected cells; host or cells: CHO cells
T7 sequence (P50406 whole entry): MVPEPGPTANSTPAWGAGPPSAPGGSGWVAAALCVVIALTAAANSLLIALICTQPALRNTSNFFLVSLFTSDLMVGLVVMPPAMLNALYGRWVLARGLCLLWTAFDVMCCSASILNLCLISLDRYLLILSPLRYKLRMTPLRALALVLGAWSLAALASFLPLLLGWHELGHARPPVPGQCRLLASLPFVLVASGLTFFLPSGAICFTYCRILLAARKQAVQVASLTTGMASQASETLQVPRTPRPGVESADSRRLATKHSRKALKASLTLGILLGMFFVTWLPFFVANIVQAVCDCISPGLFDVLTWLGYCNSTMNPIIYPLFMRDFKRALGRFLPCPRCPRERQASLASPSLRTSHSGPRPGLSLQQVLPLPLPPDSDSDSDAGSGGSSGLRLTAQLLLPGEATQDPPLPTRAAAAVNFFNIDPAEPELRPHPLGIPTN
Procedure: as §4, §5, §6

[8] = target: T7, 5-HT6 (h), human recombinant (CHO cells); test: Cellular functional assay 5-HT6 (h) antagonism; type: cell-based; details: compound 1×10^−6 M, stimulus serotonin 100 nM, read-out: 5-HT6-antag [%]
Procedure: as §4, §5, §6

Compound	D4.4 [%] binding assay result [1] [%]	M3 [%] affinity test result [2] [%]	H1 [%] affinity test result [3] [%]	inhibition at 1 µM [4] [%]	D3-ag [%] [5] [%]	5-HT1A-antag [%] [6] [%]	activation at 1 µM [7] [%]	inhibition at 1 µM [8] [%]	Ki [3] [nM]
NC(=O)c1ccccc1OCCCN1CCN(c2cccc3c2ccn3S(=O)(=O)c2ccccc2)CC1 [Compound 72, 2-[3-[4-[1-(Benzenesulfonyl)indol-4-yl]piperazin-1-yl]propoxy]-benzamide]	95	23	80	95	34	61	-2	103	–
O=C1CCc2ccc(OCCCCN3CCN(c4cccc5c4ccn5Cc4cccc(F)c4)CC3)cc2N1 [Compound 63, 7-[4-[4-[1-[(3-Fluorophenyl)methyl]indol-4-yl]piperazin-1-yl]butoxy]-3,4-dihydro-1H-quinolin-2-one]	46	–	81	108	20	73	-1	61	–
O=C1CCc2ccc(OCCCCN3CCN(c4cccc5c4ccn5Cc4cccc(Cl)c4)CC3)cc2N1 [Compound 67, 7-[4-[4-[1-[(3-Chlorophenyl)methyl]indol-4-yl]piperazin-1-yl]butoxy]-3,4-dihydro-1H-quinolin-2-one]	44	–	–	103	11	56	0	53	–
O=C1CCc2ccc(OCCCN3CCN(c4cccc5c4ccn5Cc4ccccc4)CC3)cc2N1 [Compound 4, 7-[3-[4-(1-Benzylindol-4-yl)piperazin-1-yl]propoxy]-3,4-dihydro-1H-quinolin-2-one]	63	–	73	89	22	17	0	73	–
O=C1CCc2ccc(OCCCN3CCN(c4cccc5c4ccn5S(=O)(=O)c4ccccc4)CC3)cc2N1 [Compound 23, 7-[3-[4-[1-(Benzensulphonyl)indol-4-yl]piperazin-1-yl]propoxy]-3,4-dihydro-1H-quinolin-2-one]	18	16	72	55	65	20	2	42	150
O=C1CCc2ccc(OCCCCN3CCN(c4cccc5c4ccn5Cc4ccccc4)CC3)cc2N1 [Compound 5, 7-(4-(4-(1-Benzyl-1H-indol-4-yl)piperazin-1-yl)butoxy)-3,4-dihydroquinolin-2(1H)-one]	40	–	88	99	22	31	-1	42	–
O=C1CCc2ccc(OCCCCN3CCN(c4cccc5c4ccn5S(=O)(=O)c4ccccc4)CC3)cc2N1 [Compound 24, 7-(4-(4-(1-(Phenylsulphonyl)-1H-indol-4-yl)piperazin-1-yl)butoxy)-3,4-dihydroquinolin-2(1H)-one]	42	37	78	93	13	0	0	88.7	100
